Patent publication US20120208781A1, “AMINOGLYCOSIDE DOSING REGIMENS” (Achaogen, Inc., priority 2009, published 2012)
Converted amounts (≈) assume the structure as drawn. Like-named read-outs stand apart in the source and are kept apart here.

Tests used:
[1] = Pharmacokinetics of Compound 1 after single bolus IV injection in mice; type: in vivo, CD-1 mice; conditions: 10 mg/kg single bolus IV; for C0: 10 mg/kg
Protocol: Male CD-1 mice, Sprague Dawley rats, and beagle dogs were administered Compound 1 intravenously. Compound 1 was preformulated as a sterile isotonic solution of 10 mg/mL in PBS. Specifically, male CD-1 mice were administered a single bolus IV injection of the Compound at 10 mg/kg, via a bolus IV injection into the tail vein. Two blood samples per mouse were collected by retro-orbital puncture into tubes containing the anticoagulant K2EDTA prior to dosing and at 0.033, 0.083, 0.25, 0.5, 1 and 24 hours. Rats were administered Compound 1 at 10 mg/kg via a bolus IV injection into the tail vein. Twelve blood samples per rat were collected via a jugular vein cannula into tubes containing the anticoagulant K2EDTA at various timepoints (i.e., 0.033, 0.083, 0.25, 0.5, 1, 2, 4, 6, 8, 10, 12, and 24 hours). Male beagle dogs were administered Compound 1 at 10 mg/kg through a temporary percutaneous catheter placed in a peripheral vein. Whole blood samples (0.5 mL) were collected from each dog prior to dosing and at 0.033, 0.083, 0.25, 0.5, 1, 2, 4, 6, 8, and 24 hours via direct venipuncture of a jugular or cephalic vein into tubes containing the anticoagulant K2EDTA. A sparse sampling method was employed to conserve animals and provide the best data possible from fewer mice. Samples were centrifuged, and plasma was collected and transferred into a new tube and frozen at −80° C. until they were analyzed.
Blood, urine, and kidney samples collected over 24 hours were analyzed for Compound 1 levels using LC-MS/MS. Method performance was acceptable in the concentration ranges necessary to determine plasma levels. Compound 1 plasma concentrations were determined by comparing Compound 1 concentration in the sample to a standard curve derived from LC-MS/MS measurements of the analyte. The standard curve fit was linear with a 1/x^2 weighting.
Bioanalytical data analyses were carried out using Analyst software (version 1.4.1, Applied Biosystems, Toronto, ON, Canada). […] PK parameters were determined by noncompartmental analysis using WinNonLin. Plasma protein binding was determined using equilibrium dialysis. In vitro stability was determined using commercially available plasma, microsomes and hepatocytes.

[2] = tested on: P. aeruginosa (PA); assay: MIC, broth microdilution, Brooklyn hospital isolates: P. aeruginosa; type: cell-based; conditions: Pseudomonas aeruginosa; PA (n = 33)
Protocol: (§1) In another study, the activity of Compound 1 against a collection of contemporary Gram-negative bacteria was determined. Unique patient isolates of P. aeruginosa (PA), A. baumannii (AB), K. pneumoniae (KP), E. coli (EC), and Enterobacter spp. (EB) from prior surveys at 16 Brooklyn, N.Y. hospitals were selected based on resistance patterns. The majority of isolates were fingerprinted by automated ribotyping. MICs were performed by broth microdilution. PCR was used to identify aminoglycoside-modifying enzymes (AMEs) in AB and KP and the KPC gene in Enterobacteriaceae (EN). The expression of the efflux genes mexA, C, E and X in PA, and adeB in AB was assessed by real-time RT-PCR.

[3] = tested on: Enterobacter spp. (EB); assay: MIC, broth microdilution, Brooklyn hospital isolates: Enterobacter spp.; type: cell-based; conditions: Enterobacter; EB (n = 30)
Protocol: as §1

[4] = tested on: Enterobacteriaceae (EN); assay: MIC, broth microdilution, Brooklyn hospital isolates: Enterobacteriaceae subsets (amikacin-resistant, KPC+); type: cell-based
Protocol: as §1

[5] = tested on: glomerular filtration rate; assay: First-in-human phase 1 study: renal function (BUN, Cr, iothalamate GFR); type: in vivo; conditions: healthy volunteers
Protocol: Safety evaluation was based on clinical observations, vital sign measurements, laboratory tests, physical examination, electrocardiogram, cochlear function, vestibular function testing, and reported adverse events. Cochlear function was evaluated by pure tone audiometry with bone conduction and otoacoustic emission (OAE) testing. Vestibular function was evaluated by electronystagmography (ENG) and Dynamic Visual Acuity (DVA) test. Laboratory tests included complete blood count (CBC), serum chemistries, and urinalysis. BUN and creatinine (Cr) were assessed daily on dosing days to allow the Investigator to monitor renal function. Results were used as criteria for dose escalation. The glomerular filtration rate (GFR) was estimated using iothalamate plasma measurements before dosing and after the multiple dose periods. GFR was also assessed by Cr clearance before dosing and after the multiple dose periods.
Iothalamate was infused the day prior to the single-dose and prior to the first multiple-dose and the day after the last multiple-dose. Blood samples for iothalamate analysis for GFR calculation were obtained prior to the start of the iothalamate infusion and the following hours after the start of the infusion: 1, 2, 4, and 8.

[6] = Prediction of human plasma levels and half-life of Compound 1 from mouse, rat and dog data (allometric scaling); conditions: humans
Protocol: The PK profile of Compound 1 supports use of high doses in short infusions, administered once-daily to achieve high Cmax and AUC, which are important for both efficacy and safety.
In the phase 1 clinical studies described herein, Compound 1 was administered over a short infusion time period of 10 minutes. Based upon allometric scaling of the mouse, rat and dog nonclinical data, the Cmax associated with longer infusion time periods was predicted, as summarized in Table 21. As shown, longer infusion time periods are associated with lower Cmax, resulting in a lower Cmax to AUC ratio.

[7] = Guinea pig toxicokinetics of Compound 1; type: in vivo, guinea pigs
Protocol: Additionally, four groups of four male and four female animals were utilized for toxicokinetic (TK) sampling and received the control or test article in the same manner as the main study groups at respective dose levels of 0 (Vehicle Control), 8, 30, or 80 mg/kg.
Physical examinations were conducted pretest on all animals and prior to study termination for main study animals. […] Blood samples for determination of the plasma concentrations of the test article were collected from TK animals at designated time points on Day 1 and Day 14. After blood collection, the TK animals were euthanized and the carcasses were discarded.

[8] = tested on: cochlear hair cells; assay: Cytocochleogram analysis in 28-day guinea pig ototoxicity model; type: in vivo, guinea pigs
Protocol: Following euthanasia and whole body intravascular perfusion with 4% paraformaldehyde, the temporal bones of the left and right ears were removed. Gross middle ear assessments were performed using a dissecting microscope. […] Following gross middle ear assessment, the cochleas of the left ear were fixed by intrascalar perfusion with 4% paraformaldehyde. Cochlea tissues of both ears were placed in 4% paraformaldehyde for approximately 1 hour. Tissues were then transferred to 0.5% paraformaldehyde, stored refrigerated, and shipped on gel packs to the Kresge Hearing Research Institute, Ann Arbor, Mich., for further processing and cytocochleogram analysis.
These guinea pig ototoxicity studies also included microscopic analysis of surgically dissected cochleas from each animal to assess hair cell damage (cytocochleograms). The underlying cause of aminoglycoside related hearing loss is damage to the hair cells of the auditory system after significant accumulation of aminoglycosides in the inner ear. In the cochlea, drug-induced hair cell loss typically progresses from the basal to the apical turns of the cochlea. Perception of high-frequency sounds, a function of the basal hair cells, is lost first; perception of low-frequency sounds, a function of the more apical hair cells, is the last to be lost (Selimoglu, E., Curr Pharm Des. 2007; 13(1):119-26). For obvious reasons, it is impractical to obtain cytocochleograms from each animal prior to dosing, and some hair cell loss is usually observed in control (vehicle dosed) animals in these guinea pig studies. This variability makes it difficult to determine whether hair cell loss observed post-treatment is due to the drug treatment, especially mild hair cell loss, […]

In the case of `CN[C@@H]1[C@@H](O)[C@@H](O[C@@H]2[C@@H](O)[C@H](O[C@H]3OC(CNCCO)=CC[C@H]3N)[C@@H](N)C[C@H]2NC(=O)[C@@H](O)CCN)OC[C@]1(C)O` [Compound 1, 6′-(2-Hydroxy-ethyl)-1-(4-amino-2(S)-hydroxy-butyryl)-sisomicin], the C0 [1] is reported as 87.6 µg/mL, the AUC(0-inf) ([1]; male, CD-1, mouse, plasma) is reported as 18.5 µg·h/mL and the clearance ([1]; male, CD-1, mouse, plasma) is reported as 9.02 mL/min/kg. For the same compound, the half-life ([1]; male, CD-1, mouse, plasma) was 1.4 h, the MRT inf ([1]; male, CD-1, mouse, plasma, read-out: MRT0-∞) was 0.6 h and the Vd ([1]; male, CD-1, mouse, plasma, read-out: Vss) was 0.34 L. For the same compound, the Vd ([1]; male, CD-1, mouse, plasma, read-out: volume of distribution at steady state (Vss)) was 0.34 L/kg, the C0 ([1]; male, CD-1, mouse, plasma, iv, read-out: C0) was 88 µg/mL and the MIC50 [2] was 8 µg/mL (≈ 13.5 µM). It also gave an MIC90 [2] of 16 µg/mL (≈ 27 µM), an MIC50 [3] of 1 µg/mL (≈ 1.69 µM) and an MIC90 [3] of 4 µg/mL (≈ 6.75 µM). It also gave an MIC50 [4] of 0.5 µg/mL (≈ 0.844 µM), an MIC90 ([4]; Amikacin-Resistant-EN (n = 35)) of 2 µg/mL (≈ 3.37 µM) and an MIC50 ([4]; KPC +− EN (n = 24)) of 0.5 µg/mL (≈ 0.844 µM). The MIC90 ([4]; KPC +− EN (n = 24)) was 4 µg/mL (≈ 6.75 µM), the “iothalamate plasma measurements (GFR)” value [5] was “did not change” and the “predicted Cmax with longer infusion time periods” value [6] was “lower Cmax”. For the same compound, the “guinea pig AUC relative to average human AUC at proposed clinical dose” value ([7]; 80 mg/kg/day guinea pig vs 15 mg/kg human) was 1.5 ×, the AUC ([7]; both sexes, Crl:HA (Albino Hartley), guinea pig, plasma, subcutaneous, guinea pigs, 80 mg/kg/day) was 370 µg·h/mL and the “animals with a few spikes of minimal hair cell loss” value ([8]; guinea pigs, 8 mg/kg) was 2/8. For the same compound, the “animals with minimal to moderate outer hair cell loss at the apical end or middle region” value ([8]; guinea pigs, 30 mg/kg) was 3/8, the “animals with large loss of outer hair cells across the length of the cochlea” value ([8]; guinea pigs, 80 mg/kg) was “One of 8” and the “animals with minimal loss of both inner and outer hair cells at the mid-cochlea or apical end” value ([8]; guinea pigs, 80 mg/kg) was 2/8. For the same compound, the “dose-response of hair cell loss” value ([8]; guinea pigs, 8, 30, 80 mg/kg) was “no dose-response of hair cell loss”.
